US9328106B2, “Cyclic ether pyrazol-4-yl-heterocyclyl-carboxamide compounds and methods of use” (Genentech, Inc., priority 2012, dated 2016)

Target: PIM1 (Homo sapiens (Human), UniProt P11309)
Test: biochemical
Format: biochemical
Conditions: 20 pM PIM1, 1 μM FAM-peptide, 10 μM ATP, 90 minutes at room temperature; read-out: PIM1 LC3K (KI)

Sequence of PIM1 (P11309 whole entry): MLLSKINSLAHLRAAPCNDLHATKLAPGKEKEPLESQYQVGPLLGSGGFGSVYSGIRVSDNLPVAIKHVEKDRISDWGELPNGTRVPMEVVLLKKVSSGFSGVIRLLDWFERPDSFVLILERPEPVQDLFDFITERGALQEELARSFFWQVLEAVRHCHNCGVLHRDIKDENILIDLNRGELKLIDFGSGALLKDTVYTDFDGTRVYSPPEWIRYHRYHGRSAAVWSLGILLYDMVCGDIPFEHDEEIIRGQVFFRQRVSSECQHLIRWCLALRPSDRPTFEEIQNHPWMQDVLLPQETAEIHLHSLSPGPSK

Ki | Compound
13 pM | Cn1ncc(NC(=O)c2nc(-c3c(F)cccc3F)sc2N)c1[C@@H]1CC[C@@H](N)C(F)(F)CO1 [Example 168, 5-Amino-N-[5-[(2S,5R)-5-amino-6,6-difluoro-oxepan-2-yl]-1-methyl-pyrazol-4-yl]-2-(2,6-difluorophenyl)thiazole-4-carboxamide]
7 pM | CO[C@H]1CO[C@H](c2c(NC(=O)c3nc(-c4cc(Cl)ccc4F)sc3N)cnn2C)CC[C@H]1N [Example 281, 5-amino-N-(5-((2S,5R,6R)-5-amino-6-methoxyoxepan-2-yl)-1-methyl-1H-pyrazol-4-yl)-2-(5-chloro-2-fluorophenyl)thiazole-4-carboxamide]
18 pM | Cn1ncc(NC(=O)c2ccc(F)c(-c3c(F)cc(OC4CCOCC4)cc3F)n2)c1[C@@H]1CC[C@@H](N)[C@H](F)CO1 [Example 197, N-(5-((2S,5R,6S)-5-Amino-6-fluorooxepan-2-yl)-1-methyl-1H-pyrazol-4-yl)-6-(2,6-difluoro-4-((tetrahydro-2H-pyran-4-yl)oxy)phenyl)-5-fluoropicolinamide]
351 pM | Cn1ncc(NC(=O)c2nc(-c3c(F)cccc3F)sc2N)c1[C@H]1CCC(F)[C@@H](N)CO1 (stereo in doubt) [Example 145, 5-Amino-N-[5-[6-amino-5-fluoro-oxepan-2-yl]-1-methyl-pyrazol-4-yl]-2-(2,6-difluorophenyl)thiazole-4-carboxamide]
91 pM | Cc1cccc(F)c1-c1nc(C(=O)Nc2cnn(C)c2[C@@H]2CC[C@@H](N)[C@H](F)CO2)cs1 [Example 315, N-(5-((2S,5R,6S)-5-amino-6-fluorooxepan-2-yl)-1-methyl-1H-pyrazol-4-yl)-2-(2-fluoro-6-methylphenyl)thiazole-4-carboxamide]
112 pM | Cn1ncc(NC(=O)c2csc(-c3c(F)cncc3F)n2)c1[C@@H]1CC[C@@H](N)[C@@H](F)CO1 [Example 247, N-(5-((2S,5R,6R)-5-amino-6-fluorooxepan-2-yl)-1-methyl-1H-pyrazol-4-yl)-2-(3,5-difluoropyridin-4-yl)thiazole-4-carboxamide]
34 pM | Cn1ncc(NC(=O)c2ccc(F)c(-c3c(F)cc(C4(O)COC4)cc3F)n2)c1[C@@H]1CC[C@@H](N)[C@H](F)CO1 [Example 193, N-(5-((2S,5R,6S)-5-amino-6-fluorooxepan-2-yl)-1-methyl-1H-pyrazol-4-yl)-6-(2,6-difluoro-4-(3-hydroxyoxetan-3-yl)phenyl)-5-fluoropicolinamide]
105 pM | Cn1ncc(NC(=O)c2nc(-c3c(F)cccc3F)sc2N)c1[C@@H]1CC(F)[C@H](N)CCO1 (stereo partly drawn) [Example 150, 5-Amino-N-[5-[(2S,5R)-5-amino-4-fluoro-oxepan-2-yl]-1-methyl-pyrazol-4-yl]-2-(2,6-difluorophenyl)thiazole-4-carboxamide]
52 pM | CO[C@H]1CO[C@H](c2c(NC(=O)c3nc(-c4c(C)cccc4F)sc3N)cnn2C)CC[C@H]1N [Example 269, 5-amino-N-(5-((2S,5R,6R)-5-amino-6-methoxyoxepan-2-yl)-1-methyl-1H-pyrazol-4-yl)-2-(2-fluoro-6-methylphenyl)thiazole-4-carboxamide]
93 pM | Cn1ncc(NC(=O)c2csc(-c3cc(C4CC4)ccc3F)n2)c1[C@@H]1CC[C@@H](N)[C@H](F)CO1 [Example 310, N-(5-((2S,5R,6S)-5-amino-6-fluorooxepan-2-yl)-1-methyl-1H-pyrazol-4-yl)-2-(5-cyclopropyl-2-fluorophenyl)thiazole-4-carboxamide]
95 pM | Cn1ncc(NC(=O)c2nc(-c3c(F)cccc3F)sc2N)c1[C@@H]1C[C@H](O)CCO1 [Example 146, 5-amino-2-(2,6-difluorophenyl)-N-(5-((2S,4R)-4-hydroxytetrahydro-2H-pyran-2-yl)-1-methyl-1H-pyrazol-4-yl)thiazole-4-carboxamide]
127 pM | CO[C@H]1CO[C@H](c2c(NC(=O)c3nc(-c4cc(F)cc(F)c4F)sc3N)cnn2C)CC[C@H]1N [Example 263, 5-amino-N-(5-((2S,5R,6R)-5-amino-6-methoxyoxepan-2-yl)-1-methyl-1H-pyrazol-4-yl)-2-(2,3,5-trifluorophenyl)thiazole-4-carboxamide]
117 pM | Cn1ncc(NC(=O)c2csc(-c3cccc4c3cnn4C)n2)c1[C@@H]1CC[C@@H](N)[C@H](F)CO1 [Example 402, N-[5-[(2S,5R,6S)-5-amino-6-fluoro-oxepan-2-yl]-1-methyl-pyrazol-4-yl]-2-(1-methylindazol-4-yl)thiazole-4-carboxamide]
11 pM | Cn1ncc(NC(=O)c2csc(-c3c(F)cc(C4CCOC4)cc3F)n2)c1[C@@H]1CC[C@@H](N)[C@H](F)CO1 (stereo partly drawn) [Example 216, N-(5-((2S,5R,6S)-5-amino-6-fluorooxepan-2-yl)-1-methyl-1H-pyrazol-4-yl)-2-(2,6-difluoro-4-(tetrahydrofuran-3-yl)phenyl)thiazole-4-carboxamide]
340 pM | Cn1ncc(NC(=O)c2csc(-c3ccncc3F)n2)c1[C@@H]1CC[C@@H](N)[C@H](F)CO1 [Example 240, N-(5-((2S,5R,6S)-5-amino-6-fluorooxepan-2-yl)-1-methyl-1H-pyrazol-4-yl)-2-(3-fluoropyridin-4-yl)thiazole-4-carboxamide]
23 pM | COCCOc1cc(F)c(-c2nc(C(=O)Nc3cnn(C)c3[C@@H]3CC[C@@H](N)[C@H](F)CO3)ccc2F)c(F)c1 [Example 192, N-(5-((2S,5R,6S)-5-amino-6-fluorooxepan-2-yl)-1-methyl-1H-pyrazol-4-yl)-6-(2,6-difluoro-4-(2-methoxyethoxy)phenyl)-5-fluoropicolinamide]
10 pM | Cn1ncc(NC(=O)c2nc(-c3c(F)cccc3F)sc2N)c1[C@@H]1C[C@@H](F)[C@H](N)CCO1 (stereo in doubt) [Example 135, 5-amino-N-[5-(5-amino-4-fluoro-oxepan-2-yl)-1-methyl-pyrazol-4-yl]-2-(2,6-difluorophenyl)thiazole-4-carboxamide]
7 pM | Cc1cccc(F)c1-c1nc(C(=O)Nc2cnn(C)c2[C@@H]2CC[C@@H](N)[C@@H](F)CO2)c(N)s1 [Example 273, 5-amino-N-(5-((2S,5R,6R)-5-amino-6-fluorooxepan-2-yl)-1-methyl-1H-pyrazol-4-yl)-2-(2-fluoro-6-methylphenyl)thiazole-4-carboxamide]
469 pM | Cn1ncc(NC(=O)c2nc(-c3c(F)cccc3F)sc2N)c1C1CC(F)C(N)CCO1 (stereo not drawn) [Example 140, 5-amino-N-(5-(5-amino-4-fluorooxepan-2-yl)-1-methyl-1H-pyrazol-4-yl)-2-(2,6-difluorophenyl)thiazole-4-carboxamide]
13 pM | Cc1ccc(F)c(-c2nc(C(=O)Nc3cnn(C)c3[C@@H]3CC[C@@H](N)[C@H](F)CO3)cs2)c1F [Example 303, N-(5-((2S,5R,6S)-5-amino-6-fluorooxepan-2-yl)-1-methyl-1H-pyrazol-4-yl)-2-(2,6-difluoro-3-methylphenyl)thiazole-4-carboxamide]
485 pM | Cn1ncc(NC(=O)c2nc(-c3c(F)cccc3F)sc2N)c1C1=CCOCC1 [Example 101, 5-amino-2-(2,6-difluorophenyl)-N-[5-(3,6-dihydro-2H-pyran-4-yl)-1-methyl-pyrazol-4-yl]thiazole-4-carboxamide]
